Experimental data from patent US20250388582A1, “NOVEL BICYCLIC HETEROARYL COMPOUND AND USE THEREOF” (ILDONG PHARMACEUTICAL CO., LTD., priority 2022, published 2025).

How the values were obtained:
[1] = Microsomal metabolic stability assay; type: in vitro ADME, human or CD1 male mouse; conditions: Clint class; 1 μM compound, 0.5 mg/ml microsomes, NADPH, UDPGA, Alamethicin; species not given
Description: The microsomal metabolic stability assay was performed using pooled human or CD1 male mouse interspecies microsomes. Supplemental cofactors (NADPH, UDPGA) and microsomal membrane pore-forming factor (Alamethicin) were added to promote cytochrome P450 (CYP), UGT reactivity to the target compound. Test compounds (1 μM incubation concentration) and microsomes (0.5 mg/ml incubation concentration) were diluted in 0.1 M phosphate buffer, pH 7.4, and incubated (37° C.). The reaction was initiated by the addition of NADPH (1 mM), UDPGA (1 mM) and Alamethicin (25 μg/mg). The incubation times were 0, 5, 15, 30, and 45 minutes, and at each time point, the reaction was terminated by adding acetonitrile containing internal standard (IS)(1:3 ratio). The plate was then sealed, centrifuged (3000 rpm, 20 min, 4° C.), and the supernatant was analyzed by LC-MS/MS. Hepatic extraction ratio values were calculated from the measured in vitro clearance and Intrinsic clearance (Clint) values were calculated from the assay results, and the respective Clint values were categorized into Low, Medium, and High categories based on the reference document (ref. Prostaglandins & other lipid mediators 136 (2018): 90-95).

PIKFYVE = target: T1, PIKFYVE (Homo sapiens, UniProt Q9Y2I7); assay: NanoBRET TE Intracellular Kinase Assay, interaction of PIKFYVE and compounds in HEK293 cells; type: cell-based; conditions: IC50 class from BRET; HEK293 cells expressing PIKFYVE-NanoLuc; 2 hours incubation
T1 construct: host or cells: HEK293 (ATCC, CRL-1573)
T1 sequence (Q9Y2I7 whole entry): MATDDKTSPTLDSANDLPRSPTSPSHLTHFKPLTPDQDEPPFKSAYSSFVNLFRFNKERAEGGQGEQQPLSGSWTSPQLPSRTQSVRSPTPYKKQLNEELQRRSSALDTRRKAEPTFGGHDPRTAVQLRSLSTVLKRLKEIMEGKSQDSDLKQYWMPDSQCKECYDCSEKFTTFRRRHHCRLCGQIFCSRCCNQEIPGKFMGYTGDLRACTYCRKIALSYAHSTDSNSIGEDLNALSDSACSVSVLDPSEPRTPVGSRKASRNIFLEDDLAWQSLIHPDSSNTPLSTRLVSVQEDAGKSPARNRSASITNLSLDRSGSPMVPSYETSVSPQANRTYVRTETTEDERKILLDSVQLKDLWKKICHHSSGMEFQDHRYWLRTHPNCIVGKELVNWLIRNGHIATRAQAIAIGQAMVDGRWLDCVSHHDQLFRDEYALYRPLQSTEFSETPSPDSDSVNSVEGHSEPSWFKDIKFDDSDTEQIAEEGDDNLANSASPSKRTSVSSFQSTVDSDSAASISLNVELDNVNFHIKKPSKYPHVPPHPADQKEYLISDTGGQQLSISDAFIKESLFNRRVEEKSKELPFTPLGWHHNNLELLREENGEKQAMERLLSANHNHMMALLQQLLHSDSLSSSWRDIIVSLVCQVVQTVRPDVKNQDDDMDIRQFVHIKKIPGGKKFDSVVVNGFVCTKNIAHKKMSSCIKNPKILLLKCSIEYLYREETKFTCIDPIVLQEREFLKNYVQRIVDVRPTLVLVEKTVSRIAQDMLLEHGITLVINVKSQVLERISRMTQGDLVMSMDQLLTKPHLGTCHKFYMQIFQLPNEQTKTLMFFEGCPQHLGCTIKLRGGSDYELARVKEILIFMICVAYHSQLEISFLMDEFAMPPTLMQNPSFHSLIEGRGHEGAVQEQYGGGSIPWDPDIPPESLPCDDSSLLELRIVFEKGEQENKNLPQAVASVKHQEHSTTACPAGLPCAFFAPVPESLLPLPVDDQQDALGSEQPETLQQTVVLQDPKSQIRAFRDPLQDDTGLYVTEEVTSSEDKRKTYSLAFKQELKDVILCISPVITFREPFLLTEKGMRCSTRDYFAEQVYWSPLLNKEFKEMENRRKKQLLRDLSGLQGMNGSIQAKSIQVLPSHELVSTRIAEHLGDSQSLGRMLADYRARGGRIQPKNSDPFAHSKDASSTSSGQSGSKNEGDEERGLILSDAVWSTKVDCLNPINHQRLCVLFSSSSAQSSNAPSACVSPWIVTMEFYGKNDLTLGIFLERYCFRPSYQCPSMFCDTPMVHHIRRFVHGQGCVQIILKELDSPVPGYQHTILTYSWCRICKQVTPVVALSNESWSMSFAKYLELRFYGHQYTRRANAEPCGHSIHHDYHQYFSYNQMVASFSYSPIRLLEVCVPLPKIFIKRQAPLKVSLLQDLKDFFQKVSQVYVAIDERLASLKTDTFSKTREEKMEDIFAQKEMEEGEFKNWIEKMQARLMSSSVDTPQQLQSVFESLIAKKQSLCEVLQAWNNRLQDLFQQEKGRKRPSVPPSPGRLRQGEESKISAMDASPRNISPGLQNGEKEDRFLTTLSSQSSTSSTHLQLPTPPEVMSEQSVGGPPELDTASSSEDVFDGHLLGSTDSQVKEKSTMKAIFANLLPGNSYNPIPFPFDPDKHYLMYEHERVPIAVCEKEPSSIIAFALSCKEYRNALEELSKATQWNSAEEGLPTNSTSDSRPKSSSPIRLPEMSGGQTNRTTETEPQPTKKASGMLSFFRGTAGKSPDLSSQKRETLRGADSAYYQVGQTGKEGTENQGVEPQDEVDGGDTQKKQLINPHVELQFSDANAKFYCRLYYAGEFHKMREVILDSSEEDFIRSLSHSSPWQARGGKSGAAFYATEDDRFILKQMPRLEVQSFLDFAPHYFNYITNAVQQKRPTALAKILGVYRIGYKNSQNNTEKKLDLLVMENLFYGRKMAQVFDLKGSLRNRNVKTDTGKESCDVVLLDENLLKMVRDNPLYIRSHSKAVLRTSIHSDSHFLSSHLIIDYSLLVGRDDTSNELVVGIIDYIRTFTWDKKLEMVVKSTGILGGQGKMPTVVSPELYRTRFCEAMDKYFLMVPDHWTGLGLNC
Procedure, shortened: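 HEK293 cells transiently expressing a PIKFYVE-NanoLuc fusion were incubated 2 h at 37 °C, 5% CO2 with compound plus NanoBRET tracer. BRET was read after adding Nano-Glo substrate, giving intracellular target engagement by tracer displacement.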

human GST-PIKFYVE = target: T2, human GST-PIKFYVE (Homo sapiens, UniProt Q9Y2I7); assay: ADP-Glo kinase assay, enzyme inhibition activity against human PIKFYVE (Carna biosciences); type: biochemical; conditions: inhibitory activity at final compound concentration 10 nM; 1 hour at room temperature
T2 construct: GST; purchased Carna biosciences 11-118
T2 sequence (Q9Y2I7 whole entry): as above
Procedure, shortened: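 Human GST-PIKFYVE (glutathione Sepharose-purified) was reacted with substrate and ATP for 1 h at room temperature in 50 mM MOPS, 1 mM DTT, pH 7.2, with compound at 10 nM final. ADP formed was read by ADP-Glo luminescence; inhibition was calculated against no-enzyme (100%) and no-compound (0%) controls.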

| Microsomal metabolic stability [1] | IC50 (PIKFYVE) [nM] | ADP-Glo kinase assay (%, 10 nM) (human GST-PIKFYVE) [%] | Compound |
| --- | --- | --- | --- |
| Medium (Medium 8.8~48,) | ≤ 10 | 87.32 | Cc1cccc(/C=N/Nc2nc(N3CCOCC3)nc3c2ncn3-c2cccc(Cl)c2)c1 [Example 122, (E)-4-(9-(3-chlorophenyl)-6-(2-(3-methylbenzylidene)hydrazinyl)-9H-purin-2-yl)morpholine] |
| Low (Low <8.8,) | ≤ 10 | 87.21 | Cc1cccc(/C=N/Nc2nc(N3CCOCC3)nc3c2ncn3-c2cccc(C#N)c2)c1 [Example 126, (E)-3-(6-(2-(3-methylbenzylidene)hydrazinyl)-2-morpholino-9H-purin-9-yl)benzonitrile] |
| Low (Low <8.8,) | ≤ 10 | 84.12 | Cc1cccc(/C=N/Nc2nc(N3CCOCC3)nc3c2ncn3-c2cccc(C)c2)c1 [Example 127, (E)-4-(6-(2-(3-methylbenzylidene)hydrazinyl)-9-(m-tolyl)-9H-purin-2-yl)morpholine] |
| Low (Low <8.8,) | ≤ 10 | 65.10 | Cc1cccc(/C=N/Nc2nc(N3CCOCC3)nc3c2ncn3-c2cccc(OC(F)(F)F)c2)c1 [Example 128, (E)-4-(6-(2-(3-methylbenzylidene)hydrazinyl)-9-(3-(trifluoromethoxy)phenyl)-9H-purin-2-yl)morpholine] |
| Low (Low <8.8,) | ≤ 10 | 89.94 | Cc1cccc(/C=N/Nc2nc(N3CCOCC3)nc3c2ncn3-c2cccc(F)c2)c1 [Example 129, (E)-4-(9-(3-fluorophenyl)-6-(2-(3-methylbenzylidene)hydrazinyl)-9H-purin-2-yl)morpholine] |
| Medium (Medium 8.8~48,) | ≤ 10 | 86.76 | C(=N\Nc1nc(N2CCOCC2)nc2c1ncn2-c1ccccc1)/c1c[nH]c2ccccc12 [Example 132, (E)-4-(6-(2-((1H-indol-3-yl)methylene)hydrazinyl)-9-phenyl-9H-purin-2-yl)morpholine] |
| Medium (Medium 8.8~48,) | ≤ 10 | 78.65 | Cc1cccc(-c2ccn(-c3nc(N4CCOCC4)nc4c3ncn4-c3ccccc3)n2)c1 [Example 136, 4-(9-phenyl-6-(3-(m-tolyl)-1H-pyrazol-1-yl)-9H-purin-2-yl)morpholine] |
| low | ≤ 10 | 84.50 | Cc1cccc(/C=N/Nc2nc(N3CCOCC3)nc3c2ncn3-c2ccnc(C(F)(F)F)c2)c1 [Example 139, (E)-4-(6-(2-(3-methylbenzylidene)hydrazinyl)-9-(2-(trifluoromethyl)pyridin-4-yl)-9H-purin-2-yl)morpholine] |
| Medium (Medium 8.8~48,) | ≤ 10 | 92.50 | Cc1cccc(/C=N/Nc2nc(N3CCOCC3)nc3c2ncn3-c2ccnc(C)c2)c1 [Example 140, (E)-4-(6-(2-(3-methylbenzylidene)hydrazinyl)-9-(2-methylpyridin-4-yl)-9H-purin-2-yl)morpholine] |
| medium | ≤ 10 | 88.29 | Cc1cccc(/C=N/Nc2nc(N3CCOCC3)nc3c2ncn3-c2cccc(C)n2)c1 [Example 141, (E)-4-(6-(2-(3-methylbenzylidene)hydrazinyl)-9-(6-methylpyridin-2-yl)-9H-purin-2-yl)morpholine] |
| Medium (Medium 8.8~48,) | ≤ 10 | 88.80 | Cc1cccc(/C=N/Nc2nc(N3CCOCC3)nc3c2ncn3-c2cc(C)n(C)n2)c1 [Example 147, (E)-4-(9-(1,5-dimethyl-1H-pyrazol-3-yl)-6-(2-(3-methylbenzylidene)hydrazinyl)-9H-purin-2-yl)morpholine] |
| Medium (Medium 8.8~48,) | ≤ 10 | 83.75 | Cc1cccc(/C=N/Nc2nc(N3CCOCC3)nc3c2ncn3-c2ccc(F)cn2)c1 [Example 149, (E)-4-(9-(5-fluoropyridin-2-yl)-6-(2-(3-methylbenzylidene)hydrazinyl)-9H-purin-2-yl)morpholine] |
| Medium (Medium 8.8~48,) | 10 to 20 | 71.16 | Cc1cccc(/C=N/Nc2nc(N3CCOCC3)nc3c2nc(C)n3CC(=O)c2ccccn2)c1 [Example 157, (E)-2-(8-methyl-6-(2-(3-methylbenzylidene)hydrazinyl)-2-morpholino-9H-purin-9-yl)-1-(pyridin-2-yl)ethan-1-one] |
| medium | 10 to 20 | 73.72 | Cc1cccc(/C=N/Nc2nc(N3CCOCC3)nc3c2nc(C)n3-c2ccccc2)c1 [Example 165, (E)-4-(8-methyl-6-(2-(3-methylbenzylidene)hydrazinyl)-9-phenyl-9H-purin-2-yl)morpholine] |
| medium | ≤ 10 | 90.77 | Cc1cccc(/C=N/n2cnc3c(Nc4ccncc4)nc(N4CCOCC4)nc32)c1 [Example 166, (E)-9-((3-methylbenzylidene)amino)-2-morpholino-N-(pyridin-4-yl)-9H-purin-6-amine] |
| low | ≤ 10 | 80.47 | Cc1cccc(/C=N/Nc2nc(N3CCOCC3)nc3c2ncn3-c2cccc(N(C)C)c2)c1 [Example 202, (E)-N,N-dimethyl-3-(6-(2-(3-methylbenzylidene)hydrazinyl)-2-morpholino-9H-purin-9-yl)aniline] |
| medium | ≤ 10 | 94.99 | Cc1cccc(/C=N/Nc2nc(N3CCOCC3)nc3c(-c4cnn(C)c4)cccc23)c1 [Example 209, (E)-4-(8-(1-methyl-1H-pyrazol-4-yl)-4-(2-(3-methylbenzylidene)hydrazinyl)quinazolin-2-yl)morpholine] |
| Low (Low <8.8,) | ≤ 10 | 88.34 | Cc1cccc(/C=N/Nc2nc(N3CCOCC3)nc3c(-c4ccncc4)cccc23)c1 [Example 212, (E)-4-(4-(2-(3-methylbenzylidene)hydrazinyl)-8-(pyridin-4-yl)quinazolin-2-yl)morpholine] |
| Medium (Medium 8.8~48,) | ≤ 10 | 81.70 | Cc1cccc(/C=N/Nc2nc(N3CCOCC3)nc3c(-c4cccnc4)cccc23)c1 [Example 215, (E)-4-(4-(2-(3-methylbenzylidene)hydrazinyl)-8-(pyridin-3-yl)quinazolin-2-yl)morpholine] |
